Entries after “also recorded” stand apart in the source; their conditions may differ. Where two headings read alike, the source gives them in different places.
Key:
CYP3A4 [1] = biological target: T1, CYP3A4 (Homo sapiens, UniProt P08684); experiment: Expected interactions with moderate or weak CYP3A4 inhibitors and inducers; type: in vivo; set-up: endogenous in cells; host or cells: in vivo, endogenous enzyme of the study subjects
Experimental: The concomitant administration of rimegepant with a moderate inhibitor of CYP3A4 may increase rimegepant exposures (AUC) by less than 2-fold [see Drug Interactions].
(§1) No dedicated drug interaction study was conducted to assess the effect of concomitant administration of a moderate or weak inducer of CYP3A4 on the pharmacokinetics of rimegepant.

healthy volunteers = experiment: Resting blood pressure on concomitant administration with sumatriptan; type: in vivo, human; conditions: with sumatriptan 12 mg subcutaneous vs sumatriptan alone
From the text: The relationship between pharmacodynamic activity and the mechanism(s) by which rimegepant exerts its clinical effects is unknown.

[2] = Cardiac electrophysiology (QT interval); type: in vivo, human; conditions: single dose 4 times the recommended dose
clinical = conditions: human, in vivo
Experimental: Following oral administration of NURTEC ODT, rimegepant is absorbed with the maximum concentration at 1.5 hours.
(§2) The steady state volume of distribution of rimegepant is 120 L. Plasma protein binding of rimegepant is approximately 96%.
Following oral administration of [^14C]-rimegepant to healthy male subjects, 78% of the total radioactivity was recovered in feces and 24% in urine. Unchanged rimegepant is the major single component in excreted feces (42%) and urine (51%).

Tg.rasH2 mice = experiment: Carcinogenesis study, oral, 26 weeks, Tg.rasH2 mice; type: in vivo, mouse; conditions: oral 0, 10, 100, or 300 mg/k/day for 26 weeks
P-gp = P-gp (Homo sapiens, UniProt P08183); experiment: In vitro transporter inhibition; type: in vitro ADME; conditions: at clinically relevant concentrations
Sequence of P-gp (P08183 whole entry): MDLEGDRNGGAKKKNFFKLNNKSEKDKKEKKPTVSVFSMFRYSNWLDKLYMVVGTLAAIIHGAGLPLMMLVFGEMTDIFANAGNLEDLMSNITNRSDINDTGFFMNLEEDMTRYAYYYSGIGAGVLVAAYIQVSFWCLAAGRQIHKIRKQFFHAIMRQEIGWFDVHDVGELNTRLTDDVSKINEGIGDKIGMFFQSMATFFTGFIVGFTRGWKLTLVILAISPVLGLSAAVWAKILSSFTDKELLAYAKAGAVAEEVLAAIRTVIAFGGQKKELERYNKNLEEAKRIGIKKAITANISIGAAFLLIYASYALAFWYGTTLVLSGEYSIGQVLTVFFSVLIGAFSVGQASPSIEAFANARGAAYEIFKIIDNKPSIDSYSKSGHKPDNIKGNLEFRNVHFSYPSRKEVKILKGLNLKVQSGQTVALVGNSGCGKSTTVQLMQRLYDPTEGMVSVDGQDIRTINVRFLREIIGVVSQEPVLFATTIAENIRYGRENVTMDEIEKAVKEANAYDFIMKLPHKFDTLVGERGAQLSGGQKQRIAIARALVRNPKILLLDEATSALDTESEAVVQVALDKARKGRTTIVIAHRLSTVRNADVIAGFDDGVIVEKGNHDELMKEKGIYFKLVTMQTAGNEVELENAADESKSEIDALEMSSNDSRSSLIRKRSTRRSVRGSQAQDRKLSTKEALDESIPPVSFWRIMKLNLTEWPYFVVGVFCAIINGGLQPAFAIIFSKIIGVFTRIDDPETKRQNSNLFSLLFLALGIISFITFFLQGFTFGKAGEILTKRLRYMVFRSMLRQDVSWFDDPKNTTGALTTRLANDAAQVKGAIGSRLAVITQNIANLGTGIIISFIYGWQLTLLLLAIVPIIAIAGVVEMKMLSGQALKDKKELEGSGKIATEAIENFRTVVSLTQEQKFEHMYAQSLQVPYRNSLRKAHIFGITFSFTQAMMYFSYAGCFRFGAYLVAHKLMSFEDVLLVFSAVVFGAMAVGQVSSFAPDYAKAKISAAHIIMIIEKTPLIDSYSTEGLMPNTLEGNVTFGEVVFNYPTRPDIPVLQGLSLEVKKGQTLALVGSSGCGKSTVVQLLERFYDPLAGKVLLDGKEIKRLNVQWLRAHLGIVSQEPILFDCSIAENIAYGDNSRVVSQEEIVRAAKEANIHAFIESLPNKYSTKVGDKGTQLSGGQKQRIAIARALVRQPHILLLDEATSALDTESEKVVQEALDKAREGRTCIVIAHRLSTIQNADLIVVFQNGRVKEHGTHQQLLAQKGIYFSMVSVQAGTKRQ

CYP2C9 = CYP2C9 (Homo sapiens, UniProt P11712); experiment: In vitro enzyme study: substrate / metabolism; type: in vitro ADME; conditions: listed as Rimegepant
Sequence of CYP2C9 (P11712 whole entry): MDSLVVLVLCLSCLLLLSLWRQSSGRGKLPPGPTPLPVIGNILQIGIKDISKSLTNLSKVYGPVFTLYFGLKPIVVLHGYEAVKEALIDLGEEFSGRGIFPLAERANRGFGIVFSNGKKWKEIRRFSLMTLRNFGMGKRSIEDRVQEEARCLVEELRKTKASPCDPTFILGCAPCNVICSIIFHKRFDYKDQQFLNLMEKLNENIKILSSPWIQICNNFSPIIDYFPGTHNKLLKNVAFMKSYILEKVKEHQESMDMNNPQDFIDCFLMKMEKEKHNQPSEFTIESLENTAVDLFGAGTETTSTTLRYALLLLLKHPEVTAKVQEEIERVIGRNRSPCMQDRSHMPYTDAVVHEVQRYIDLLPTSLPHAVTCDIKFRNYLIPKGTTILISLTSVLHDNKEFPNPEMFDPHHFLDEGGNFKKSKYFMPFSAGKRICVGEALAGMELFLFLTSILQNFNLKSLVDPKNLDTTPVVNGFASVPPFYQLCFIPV
From the text: (§3) Rimegepant is a substrate of CYP3A4 and CYP2C9 [see In Vivo Studies].

CYP3A4 [3] = biological target: T1, CYP3A4; experiment: In vitro enzyme study: substrate / metabolism; type: in vitro ADME
From the text: as §3

OCT2 = OCT2 (Homo sapiens, UniProt O15244); experiment: In vitro transporter inhibition; type: in vitro ADME
Sequence of OCT2 (O15244 whole entry): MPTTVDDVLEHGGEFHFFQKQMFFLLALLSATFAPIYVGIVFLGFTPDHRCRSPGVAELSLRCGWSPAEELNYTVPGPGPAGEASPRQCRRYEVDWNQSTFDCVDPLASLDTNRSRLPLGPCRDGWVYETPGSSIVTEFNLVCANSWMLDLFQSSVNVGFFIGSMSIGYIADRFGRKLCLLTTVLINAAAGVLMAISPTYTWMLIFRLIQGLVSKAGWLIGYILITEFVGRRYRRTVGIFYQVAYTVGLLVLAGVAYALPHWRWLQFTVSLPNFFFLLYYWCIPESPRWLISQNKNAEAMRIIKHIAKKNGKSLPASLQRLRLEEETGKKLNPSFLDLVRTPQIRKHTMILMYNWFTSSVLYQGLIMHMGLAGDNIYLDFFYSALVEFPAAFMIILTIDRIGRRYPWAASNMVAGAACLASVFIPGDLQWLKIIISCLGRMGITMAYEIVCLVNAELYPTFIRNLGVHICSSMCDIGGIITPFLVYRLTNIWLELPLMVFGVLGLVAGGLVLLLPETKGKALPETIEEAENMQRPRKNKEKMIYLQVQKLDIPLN
From the text: (§4) Rimegepant is an inhibitor of OATP1B3, OCT2, and MATE1. No clinical drug interactions are expected for NURTEC ODT with these transporters at clinically relevant concentrations.

MATE1 = MATE1 (Homo sapiens, UniProt Q96FL8); experiment: In vitro transporter inhibition; type: in vitro ADME
Sequence of MATE1 (Q96FL8 whole entry): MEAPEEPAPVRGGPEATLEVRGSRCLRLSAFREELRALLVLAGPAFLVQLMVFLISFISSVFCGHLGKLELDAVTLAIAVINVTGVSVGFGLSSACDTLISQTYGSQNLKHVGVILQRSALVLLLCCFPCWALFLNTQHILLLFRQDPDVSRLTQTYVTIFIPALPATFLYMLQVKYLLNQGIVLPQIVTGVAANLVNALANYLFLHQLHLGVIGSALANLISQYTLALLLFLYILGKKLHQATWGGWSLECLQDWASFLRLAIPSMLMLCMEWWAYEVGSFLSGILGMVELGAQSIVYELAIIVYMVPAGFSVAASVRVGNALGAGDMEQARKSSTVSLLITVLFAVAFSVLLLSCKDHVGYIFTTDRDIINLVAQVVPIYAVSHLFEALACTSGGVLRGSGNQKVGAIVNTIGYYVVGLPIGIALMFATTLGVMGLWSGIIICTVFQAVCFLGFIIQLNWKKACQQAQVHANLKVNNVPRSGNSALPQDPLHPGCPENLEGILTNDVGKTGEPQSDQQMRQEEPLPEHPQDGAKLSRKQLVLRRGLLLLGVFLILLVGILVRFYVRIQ
From the text: as §4

OAT1 = OAT1 (Homo sapiens, UniProt Q4U2R8); experiment: In vitro transporter inhibition; type: in vitro ADME; conditions: at clinically relevant concentrations
Sequence of OAT1 (Q4U2R8 whole entry): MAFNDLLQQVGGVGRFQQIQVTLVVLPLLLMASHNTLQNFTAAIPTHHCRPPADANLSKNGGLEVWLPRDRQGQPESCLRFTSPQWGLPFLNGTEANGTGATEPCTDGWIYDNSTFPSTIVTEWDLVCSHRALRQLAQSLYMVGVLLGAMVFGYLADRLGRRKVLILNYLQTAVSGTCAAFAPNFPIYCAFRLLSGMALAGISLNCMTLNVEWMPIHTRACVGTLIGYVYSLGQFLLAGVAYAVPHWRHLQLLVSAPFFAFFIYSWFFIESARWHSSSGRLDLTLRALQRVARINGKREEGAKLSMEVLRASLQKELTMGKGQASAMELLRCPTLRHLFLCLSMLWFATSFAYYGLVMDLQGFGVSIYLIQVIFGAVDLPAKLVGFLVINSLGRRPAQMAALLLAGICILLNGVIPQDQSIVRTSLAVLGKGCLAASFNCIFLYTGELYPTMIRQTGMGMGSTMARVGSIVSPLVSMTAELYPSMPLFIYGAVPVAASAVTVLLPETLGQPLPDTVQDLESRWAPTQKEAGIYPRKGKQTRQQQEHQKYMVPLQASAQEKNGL
From the text: as §4

OAT3 = OAT3 (Homo sapiens, UniProt Q8TCC7); experiment: In vitro transporter inhibition; type: in vitro ADME
From the text: as §4

OATP1B3 = OATP1B3 (Homo sapiens, UniProt Q9NPD5); experiment: In vitro transporter inhibition; type: in vitro ADME
Sequence of OATP1B3 (Q9NPD5 whole entry): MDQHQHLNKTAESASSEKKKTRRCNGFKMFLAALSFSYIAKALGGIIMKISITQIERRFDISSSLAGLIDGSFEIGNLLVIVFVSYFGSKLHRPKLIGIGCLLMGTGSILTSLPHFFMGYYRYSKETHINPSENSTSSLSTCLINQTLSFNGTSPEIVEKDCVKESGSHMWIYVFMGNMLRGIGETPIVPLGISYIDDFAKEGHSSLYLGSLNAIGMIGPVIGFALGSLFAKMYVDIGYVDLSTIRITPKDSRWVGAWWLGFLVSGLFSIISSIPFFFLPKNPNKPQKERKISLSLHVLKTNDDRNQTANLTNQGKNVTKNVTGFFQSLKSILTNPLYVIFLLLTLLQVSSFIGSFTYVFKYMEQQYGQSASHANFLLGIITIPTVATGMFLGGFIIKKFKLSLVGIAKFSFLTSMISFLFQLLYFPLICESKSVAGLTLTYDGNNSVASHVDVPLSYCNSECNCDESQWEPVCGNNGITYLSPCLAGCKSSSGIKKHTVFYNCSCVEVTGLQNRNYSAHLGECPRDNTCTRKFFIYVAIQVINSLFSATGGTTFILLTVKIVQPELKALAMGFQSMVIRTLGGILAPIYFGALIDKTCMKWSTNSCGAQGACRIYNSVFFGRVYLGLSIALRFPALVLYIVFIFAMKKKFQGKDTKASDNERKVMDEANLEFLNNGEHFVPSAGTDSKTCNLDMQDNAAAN
From the text: as §4

pregnant rats = experiment: Embryofetal development study, oral administration during organogenesis, rats; type: in vivo, rat
Experimental: Plasma exposures (AUC) at the no-effect dose (60 mg/kg/day) for adverse effects on embryofetal development were approximately 45 times that in humans at the maximum recommended human dose (MRHD) of 75 mg/day.

[4] = test system: Chinese hamster ovary cells; experiment: Chromosomal aberration assay (in vitro); type: cell-based
From the text: (§5) Rimegepant was negative in in vitro (bacterial reverse-mutation, chromosomal aberration in Chinese hamster ovary cells) and in vivo (rat micronucleus) assays.

CYP3A4 [5] = biological target: T1, CYP3A4; experiment: Dedicated drug interaction study with rifampin (strong CYP3A4 inducer); type: in vivo; set-up: endogenous in cells; host or cells: in vivo, endogenous enzyme of the study subjects; conditions: 75 mg single dose with rifampin at steady state
Experimental: as §1

[6] = Pharmacokinetic interactions with other drugs (oral contraceptives, midazolam, sumatriptan); type: in vivo, human; conditions: with oral contraceptives (norelgestromin, ethinyl estradiol), midazolam, or sumatriptan
Plasma protein binding = type: in vitro ADME
From the text: as §2

rat micronucleus = experiment: Rat micronucleus assay (in vivo)
From the text: as §5

[7] = test system: bacterial reverse-mutation; experiment: Bacterial reverse-mutation assay (in vitro); type: cell-based
From the text: as §5

BCRP = BCRP (Homo sapiens, UniProt Q9UNQ0); experiment: In vitro transporter inhibition; type: in vitro ADME; conditions: at clinically relevant concentrations
pregnant rabbits = experiment: Embryofetal development study, oral administration during organogenesis, rabbits; type: in vivo, rabbit
Experimental: The highest dose tested (50 mg/kg/day) was associated with plasma exposures (AUC) approximately 10 times that in humans at the MRHD.

T1 sequence (P08684 whole entry): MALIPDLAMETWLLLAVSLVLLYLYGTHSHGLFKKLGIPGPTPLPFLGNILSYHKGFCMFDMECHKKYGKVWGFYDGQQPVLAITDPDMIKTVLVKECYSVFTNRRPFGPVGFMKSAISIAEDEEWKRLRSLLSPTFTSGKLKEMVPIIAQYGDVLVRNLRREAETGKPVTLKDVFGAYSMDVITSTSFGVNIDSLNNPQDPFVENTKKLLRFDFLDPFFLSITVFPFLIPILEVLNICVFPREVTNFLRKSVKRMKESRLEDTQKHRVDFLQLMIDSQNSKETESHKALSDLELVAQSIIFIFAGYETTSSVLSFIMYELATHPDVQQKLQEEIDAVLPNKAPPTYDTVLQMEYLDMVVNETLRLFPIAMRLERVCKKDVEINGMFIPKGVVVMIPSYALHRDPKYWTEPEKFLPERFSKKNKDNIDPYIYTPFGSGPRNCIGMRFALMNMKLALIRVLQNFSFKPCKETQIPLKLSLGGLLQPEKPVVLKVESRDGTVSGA

In the case of `N[C@@H]1c2cccnc2[C@H](OC(=O)N2CCC(n3c(=O)[nH]c4ncccc43)CC2)CC[C@H]1c1cccc(F)c1F` [rimegepant, (5S,6S,9R)-5-amino-6-(2,3-difluorophenyl)-6,7,8,9-tetrahydro-5H-cyclohepta[b]pyridin-9-yl 4-(2-oxo-2,3-dihydro-1H-imidazo[4,5-b]pyridin-1-yl)-1-piperidinecarboxylate], the “increase of rimegepant exposures (AUC)” value (CYP3A4 [1]; with a moderate inhibitor of CYP3A4, stated as 'may increase') is reported as “less than 2 fold”, the “impact on rimegepant exposures” value (CYP3A4 [1]; with a weak inhibitor of CYP3A4, no dedicated study conducted) is reported as “not expected to have a clinically significant impact” and the “effect on rimegepant exposure” value (CYP3A4 [1]; with moderate inducers of CYP3A4, no dedicated study conducted) is reported as “significant reduction in rimegepant exposure”. The resting blood pressure (healthy volunteers) was “No clinically relevant differences in resting blood pressure”, the QT interval prolongation [2] was “does not prolong the QT interval to any clinically relevant extent” and the “eliminated in unchanged form” value (clinical) was ~77 % of the dose. The half-life (clinical) was about 11 h, the “major metabolites (i.e., >10%) in plasma” value (clinical) was “no major metabolites” and the bioavailability (clinical; po) was about 64%. The drug-induced tumors (Tg.rasH2 mice) was “no evidence of drug-induced tumors”, the “inhibition of P-gp” value (P-gp) was “not an inhibitor” and the “substrate of / metabolized by CYP2C9” value (CYP2C9) was “substrate”. The “substrate of / metabolized by CYP3A4” value (CYP3A4 [3]) was “moderately sensitive substrate”, the “substrate of / metabolized by CYP3A4” value (CYP3A4 [3]; listed as Rimegepant) was “primarily metabolized; also recorded: substrate” and the “inhibition of OCT2” value (OCT2) was “inhibitor”. For the same molecule, the “inhibition of MATE1” value (MATE1) was “inhibitor”, the “inhibition of OAT1” value (OAT1) was “not an inhibitor” and the “inhibition of OAT3” value (OAT3) was “weak inhibitor”. For the same molecule, the “inhibition of OATP1B3” value (OATP1B3) was “inhibitor”, the “plasma exposure (AUC) relative to humans at the MRHD of 75 mg/day” value (pregnant rats; at the no-effect dose (60 mg/kg/day)) was “approximately 45 times” and the “effects on embryofetal development” value (pregnant rats; highest dose tested (300 mg/kg/day), oral, associated with maternal toxicity) was “decreased fetal body weight and an increased incidence of fetal variations”. For the same molecule, the “no-effect dose for adverse effects on embryofetal development” value (pregnant rats; oral, pregnant rats) was 60 mg/kg/day, the “mutagenesis, chromosomal aberration” value [4] was “negative” and the “decrease of rimegepant AUC” value (CYP3A4 [5]) was 80%. The “decrease of rimegepant Cmax” value (CYP3A4 [5]) was 64%, the pharmacokinetic interactions [6] was “No significant pharmacokinetic interactions” and the fraction unbound (Plasma protein binding) was about 0.04. For the same molecule, the “mutagenesis, rat micronucleus” value (rat micronucleus) was “negative”, the “mutagenesis, bacterial reverse-mutation” value [7] was “negative” and the “inhibition of BCRP” value (BCRP) was “not an inhibitor”. For the same molecule, the “effects on embryofetal development” value (pregnant rabbits; 0, 10, 25, or 50 mg/kg/day oral) was “no adverse effects on embryofetal development” and the “plasma exposure (AUC) relative to humans at the MRHD” value (pregnant rabbits; highest dose tested (50 mg/kg/day)) was “approximately 10 times”.

— patent publication US20230108049A1, “ORAL FAST-DISPERSING DOSAGE FORM OF RIMEGEPANT” (BIOHAVEN PHARMACEUTICAL HOLDING COMPANY LTD., priority 2020, published 2023)
